Assays:
[1] = test system: GAT-1 in patient astrocytes; test: 3H GABA uptake, patient iPSC derived astrocytes; format: cell-based, human; conditions: PBA 2 mM
Method: Live images of human neural progenitor cells (NPCs), astrocytes and GABAergic inhibitory neurons differentiated from the human induced pluripotent stem cells (iPSCs) on the day of experiment. […] The DMSO treated corrected or patient cells was taken as 1. […] GABA flux was measured after 30 min transport at room temperature. The influx of GABA, expressed in pmol/μg protein/min, was averaged from duplicates for each condition and for each transfection. The average counting was DMSO treated condition taken as 1. In FIG. 5B, FIG. 5D and FIG. 5F, 966 stands for CI-966 (50 μM) and 711 stands for NNC-711 (35 μM) that was applied 30 min to the astrocytes transfected with the wildtype GAT-1^YFP before preincubation and removed during preincubation. In FIGS. 5B and D, ***p<0.001 vs. corrected DMSO treated. § § <0.01, § § § p<0.001 vs. patient DMSO treated. […] In FIGS. 5B-E, n=4-8 batches of cells. In FIG. 5F, n=4-5 different transfections). Unpaired t test was used for FIG. 5C and FIG. 5E. […] Values were expressed as mean±S.E.M.). […]
Briefly, cells were cultured in […] dishes for 3 days before the GABA uptake experiment in DMEM with 10% fetal bovine serum and 1% penicillin/streptomycin. […] Glacial acetic acid was added, and lysates were then determined on a liquid scintillator with QuantaSmart. […]

[2] = test system: GAT-1; test: GAT-1 protein expression (SDS-PAGE, anti-GAT-1 blot), patient human astrocytes; format: cell-based; conditions: PBA 2 mM
Method: FIGS. 6A-B show human patient corrected (isogenic control, Corr) or uncorrected patient (Pat) astrocytes at day 30-35 after differentiation from iPSCs were co-transfected with the endoplasmic reticulum (ER) marker ER^CFP in combination with the wildtype or the mutant GAT-1^YFP cDNAs (0.5 μg: 0.5 μg per a 35 mm^2 dish) for 48 hrs before confocal microscopy analysis. Confocal images were acquired in live astrocytes under 63× objective with zoom under 2.5×. […] FIG. 6B represents the ER overlapping signal of GAT-1^YFP analyzed by Metamorph. […] Membranes were blotted with a rabbit polyclonal anti-GAT-1 antibody (FIG. 6C). The lysates of Chinese hamster ovary (CHO) cells were used as control. […] Values were expressed as mean±S.E.M.). […]
Data were expressed as mean±SEM. Proteins were quantified by Odyssey software and data were normalized to loading controls and then to the wildtype subunit protein, which was arbitrarily taken as 1 in each experiment. Fluorescence intensities from confocal microscopy experiments were determined using MetaMorph imaging software, and the measurements were carried out in ImageJ. […]

[3] = biological target: T1, GAT-1 (Rattus norvegicus, UniProt P23978); test: 3H GABA uptake, HEK cells transfected with GAT-1 cDNA with or without PBA (dual therapy); format: cell-based
T1 construct: EYFP (N); expressed in transfected cells; host or cells: HEK (HEK293T) cells
Method: In cell models, HEK293T cells were transfected with SLC6A1, SLC6A1(A288V) or SLC6A1(S295L) cDNAs. The live cells were then fluxed and evaluated for GABA uptake with a 3H radiolabeling GABA uptake assay. In order to evaluate gene expression and protein trafficking, total protein from cell lysates were subjected to SDS-PAGE and immunoblotted for GAT-1 and GFP. Gene expression was evaluated at a variety of gene therapy dosages.

For O=C(O)CCCc1ccccc1 [PBA, 4-phenylbutyric acid], the “GABA uptake normalized to its DMSO treated” value ([1]; 24 hrs) was 1.387±0.08, the “GABA uptake of the patient cells as % of the corrected cells” value ([1]; 24 hrs (57% with DMSO)) was 81% and the “GAT-1 expression normalized to its own genotype DMSO treated” value ([2]; 24 hrs) was 1.39±0.046. The “total GAT-1 protein of the patient astrocytes as % of the corrected” value ([2]; 24 hrs (52.2% untreated)) was 73.2%, the “GABA uptake, combined cDNA/PBA treatment vs. cDNA alone” value ([3]; 0.25 μg GAT-1 cDNA + 2 mM PBA vs. 0.5 μg GAT-1 cDNA alone) was “No significant difference” and the “GABA uptake function, dual therapy vs. cDNA treatment alone” value ([3]; equal cDNA amount with PBA, variety of cDNA doses in HEK cells) was “greater GABA uptake function at all but one dose size”.

— patent US20260144769A1, “4-PHENYLBUTYRATE RESTORED GABA UPTAKE AND REDUCED SEIZURES IN SLC6A1 VARIANT-MEDIATED DISORDERS” (Vanderbilt University, priority 2022, published 2026)
